The text below walks through data of US20240409607A1, “STABILIZED MHC MOLECULES” (Immatics Biotechnologies GmbH, priority 2021, published 2024).

Molecules are shown by their SMILES.

Test [1] has as its system HLA-A*02:01 ds_84-139. In words: TSA with fatty acid and/or GM loading dipeptide. Type of test: binding, human. Particulars: fatty acid 50 mM final or GM 10 mM final. The procedure:
(§1) In order to find optimal storage and handling conditions for peptide free recombinant HLA-A*02:01 preparations, different compounds were screened in a thermal shift assay (TSA). Measurements were performed in the Applied Biosystems 7500 real time PCR instrument at a protein concentration of 0.1 mg/ml in a buffer of 20 mM Tris pH 8.0, 150 mM NaCl. The additives indicated in table 3 were added or alternatively water was added as a control. The raw data was exported and the analysis of the melting temperature was performed in Microsoft Excel. Protein stability was monitored over a temperature range from 30° C. to 70° C. […] The temperature at which the maximal increase of fluorescence compared to the previous measurement was observed, is defined as melting point in the respective composition.
(§2) Reference is made to FIGS. 5 to 7.

The test system of test [2] is HLA-A*02:01_ds_22-71. In words: TSA with fatty acid and/or GM loading dipeptide. It is filed as binding, human. Particulars: fatty acid 50 mM final or GM 10 mM final. The procedure:
as §1, §2

Test [3] deals with HLA-A*02:01_ds 22-71. Particulars: 0.1 mg/ml protein, 20 mM Tris pH 8.0, 150 mM NaCl; for protein stability (melting point) in thermal shift assay: sodium butyrate 50 mM, GM dipeptide 10 mM, water as control. The procedure: (§3) After refolding the protein was concentrated by ultrafiltration and purified by size exclusion chromatography. Fatty acids were dissolved in or diluted with water and neutralized with NaOH to give stock solution of 0.5 M pH 7.
as §1

For test [4], the system named is HLA-A*02:01_ds 22-71. In words: TSA with fatty acids in 20 mM HEPES pH 7.0. It is filed as binding, human. As to conditions: 50 mM fatty acid, 20 mM HEPES pH 7.0, protein 0.1 mg/ml. The method, then: as §3
as §1, with “Measurements were performed in the Applied Biosystems 7500 real time PCR instrument at a protein concentration of 0.1 mg/ml in a buffer of 20 mM Tris pH 8.0, 150 mM NaCl.” left out

Test [5] has as its system HLA-A*0201 ds 22-71. In words: TSA-screen with 40 different buffer conditions (different pH). Type of test: binding, human. Particulars: valeric acid 50 mM. The method, then:
In a parallel TSA-screen with 40 different buffer conditions (MES pH between 5.8 to 7.2; BisTris pH between 5.8 to 7.2; MOPS pH between 6.5 to 7.9; HEPES pH 6.8 to 8.2; and Tris pH between 7.6 to 9.0), a clear link between pH conditions and stability of recombinant HLA was detected. In this experiment, a solution of 0.1 mg/ml HLA-A*0201 ds 22-71 in 20 mM HEPES pH 7.0 was supplemented with 0.1 volume of 1 M stock solution of the respective buffer. […] This pH range was also found to be optimal for peptide loaded HLA molecules. In order to test whether HLA is stabilized in different pH conditions by the fatty acids, a TSA-screen with the same 40 different buffer conditions was performed as described above. […] Accordingly, the stabilizing effect of the fatty acid on the HLA molecule was observed under different pH conditions.

Turning to `CCCCCC(=O)O` [hexanoic acid], the “stabilization of the HLA protein, single additive” value (“stabilization of the HLA protein” for short) in test [1] and in test [2] was “Stabilization of the HLA proteins was observed” each time.
Take `CSCC[C@H](N)C(=O)O.NCC(=O)O` [glycine-methionine, reference compound]: the “protein stability (melting point) in thermal shift assay” value in test [3] is on record as “marked increase in protein stability”. The “stabilization of the HLA protein” value in test [1] and in test [2] was “Stabilization of the HLA proteins was observed” in each case.
On to `CC(C)CCC(=O)O` [4-methyl-valeric acid, 4-methyl-pentanoic acid], for which the “stabilizing effect on the HLA molecule (melting point), branched or unsaturated versus linear saturated fatty acids” value in test [4] was “showed a stabilizing effect on the HLA molecule”.
Consider `CCCC(=O)[O-].[Na+]` [sodium butyrate, Sodium butyrate], for which the “stabilizing effect compared to the dipeptide glycine-methionine” value in test [3] (sodium butyrate 50 mM vs GM 10 mM) is given as “increased stabilizing effect”. The “protein stability (melting point) in thermal shift assay” value in test [3] is recorded as “marked increase in protein stability”. The “stabilization of the HLA protein” value in test [1] and in test [2] was “Stabilization of the HLA proteins was observed” throughout.
`CCCCC(=O)O` [valeric acid, Pentanoic acid]: the “stabilization of the HLA protein” value in test [1] and in test [2] was “Stabilization of the HLA proteins was observed” throughout. Besides, the “stabilizing effect compared to tests without the fatty acid” value in test [5] (40 buffer conditions, MES, BisTris, MOPS, HEPES, Tris, pH 5.8 to 9.0, 100 mM buffer) is listed as “increased in all pH conditions tested”. Also, the “stabilizing effect in the pH range of 6 to 7.2” value in test [5] (pH 6 to 7.2) is recorded as “particularly increased”.
